# Results reported in patent US20240317758A1 (Halia Therapeutics, Inc., priority 2021, published 2024).
# Assays:
# [1] = system: IL-1β release; assay: IL-1β release assay (THP-1 cells, PMA, LPS, nigericin); assay type: cell-based; conditions: Homo sapiens, LPS 250 ng/mL, nigericin 20 μM, cleaved IL-1β in media
# Protocol: Approximately 1.5 million THP-1 cells were plated in each well of a 6-well TC plate and incubated with 40 nM PMA in RPMI (10% FBS, 1% Penstrep) for 24 hours. The media was then removed and cells were rested in RPMI (10% FBS, 1% Penstrep) for 24 hours after which time the media was removed and cells were pre-treated for 2 hours with various concentrations of compounds of interest (typically serial 3-fold dilution in RPMI+5% FBS, concentrations ranging from 1 μM to 0.5 nM) in RPMI (5% FBS). The media was again removed and cells were incubated with 250 ng/mL LPS and compounds of interest (concentrations as above) in RMPI (5% FBS) for 2 hours. The media was removed for a last time and cells were incubated with 20 μM nigericin and compounds of interest (concentrations as above) in Opti-MEM for 30 minutes. Cell media was then collected and the amount of cleaved IL-1β was determined using a JESS instrument (Protein Simple) and standard protocols. Cleaved Il-1β antibody was obtained from Cell Signaling (catalogue #83186S) and was used at 1:20 dilution in antibody diluent 2. Protein Simple 1× anti-Rabbit HRP secondary antibody was used along with Protein Simple luminol and peroxide for chemiluminescent detection. Primary antibody incubation time was increased from 30 minutes to 60 minutes.
# [2] = target: T1, full-length recombinant human NEK7 (Homo sapiens, UniProt Q8TDX7); assay: NEK7 enzymatic assay; assay type: biochemical; conditions: recombinant human NEK7, casein substrate, radiolabelled ATP
# T1 construct: full-length recombinant human NEK7; GST (N); purchased SignalChem NO9-10G; host or cells: Sf9 insect cells (baculovirus)
# Protocol: Casein substrate (from bovine milk, hydrolyzed and partially dephosphorylated mixture of α, β and κ caseins, obtained from Sigma Aldrich, catalogue #C4765, diluted in distilled water to a final concentration of 1 mg/mL) and full-length recombinant human NEK7 (expressed by baculovirus in Sf9 insect cells using a N-terminal GST tag, obtained from SignalChem, catalogue #NO9-10G, 0.1 μg/μL) were mixed in assay buffer (20 mM Hepes pH 7.5, 10 mM MgCl2, 1 mM EGTA, 0.02% Brij35, 0.02 mg/ml BSA, 0.1 mM Na3VO4, 2 mM DTT, 1% DMSO). Compounds of interest (serial 3-fold dilution in DMSO from 10 μM to 0.5 nM) or vehicle (1% DMSO) were dispensed into the kinase reaction mixture by Acoustic technology (Echo550; nanoliter range). After incubation at room temperature for 20 minutes, the kinase reaction was initiated by addition of [^33P]-ATP (specific activity 10 μCi/μl) and the mixture was incubated at room temperature for 2 hours. The reaction was then stopped by spotting the reaction mixture on strips of phosphocellulose P81 paper. Following washing, the radioactivity of the P81 paper was measured and kinase activity data were expressed as the percent remaining kinase activity in test samples compared to vehicle reactions. IC50 values and curve fits were obtained using Prism (GraphPad Software).
# Casein substrate (from bovine milk, hydrolyzed and partially dephosphorylated mixture of α, β and κ caseins, obtained from Sigma Aldrich, catalogue #C4765, diluted in distilled water to a final concentration of 1 mg/mL, assay concentration 20 μM) and full-length recombinant human Nek7 (expressed by baculovirus in Sf9 insect cells using a N-terminal GST tag, obtained from SignalChem, catalogue #NO9-10G, 0.1 μg/μL, assay concentration 70 nM) were mixed in assay buffer (20 mM Hepes pH 7.5, 10 mM MgCl2, 1 mM EGTA, 0.02% Brij35, 0.02 mg/ml BSA, 0.1 mM […], 2 mM DTT, 1% DMSO). Compounds of interest (in DMSO, serial 3-fold dilution from 10 μM to 0.5 nM) or control (1% DMSO) were dispensed into the kinase reaction mixture by Acoustic technology (Echo550; nanoliter range). After incubation at room temperature for 20 minutes, the kinase reaction was initiated by addition of [^32P]-ATP (Specific activity 10 μCi/μl) and the mixture was incubated at room temperature for 2 hours. The reaction was then stopped by spotting the reaction mixture on strips of phosphocellulose P81 paper. Following washing, the radioactivity of the P81 paper was measured and kinase activity data were expressed as the percent remaining kinase activity in test samples compared to vehicle (dimethyl sulfoxide) reactions. IC50 values and curve fits were obtained using Prism (GraphPad Software).
# T1 sequence (Q8TDX7 whole entry): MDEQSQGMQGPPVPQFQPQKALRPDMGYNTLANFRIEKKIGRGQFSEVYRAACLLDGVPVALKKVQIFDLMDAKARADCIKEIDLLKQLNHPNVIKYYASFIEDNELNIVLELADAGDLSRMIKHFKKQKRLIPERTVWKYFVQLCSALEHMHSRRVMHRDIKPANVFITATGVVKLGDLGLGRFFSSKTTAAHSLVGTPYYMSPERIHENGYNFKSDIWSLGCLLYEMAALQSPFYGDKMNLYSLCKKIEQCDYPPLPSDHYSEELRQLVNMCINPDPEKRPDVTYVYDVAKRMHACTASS
SMILES,IC50 [1],IC50 [2]
"CN1CCN(Cc2ccc(NC(=O)Nc3ccc(-c4cn(C5CC5)c5ncnc(N)c45)cc3F)cc2C2CC2)CC1 [Example I-40, 1-(4-(4-amino-7-cyclopropyl-7H-pyrrolo[2,3-d]pyrimidin-5-yl)-2-fluorophenyl)-3-(3-cyclopropyl-4-((4-methylpiperazin-1-yl)methyl)phenyl)urea]",250 to 1000 nM,100 to 500 nM
"Nc1ncnc2c1c(-c1ccc(NC(=O)Nc3ccc(CN4CCN(CCF)CC4)c(C(F)(F)F)c3)c(F)c1)cn2C1CC1 [Example I-84, 1-(4-(4-amino-7-cyclopropyl-7H-pyrrolo[2,3-d]pyrimidin-5-yl)-2-fluorophenyl)-3-(4-((4-(2-fluoroethyl)piperazin-1-yl)methyl)-3-(trifluoromethyl)phenyl)urea]",< 50 nM,< 100 nM
"CN1CCN(C2CC(F)(F)c3cc(NC(=O)Nc4ccc(-c5nn(C6CC6)c6ncnc(N)c56)cc4F)ccc32)CC1 (centres unmarked) [Example I-94, 1-(4-(4-amino-1-cyclopropyl-1H-pyrazolo[3,4-d]pyrimidin-3-yl)-2-fluorophenyl)-3-(3,3-difluoro-1-(4-methylpiperazin-1-yl)-2,3-dihydro-1H-inden-5-yl)urea]",50 to 250 nM,< 100 nM
"CN1CCN(Cc2ccc(NC(=O)Nc3ccc(-c4cn(C5CC5)c5ncnc(N)c45)cc3F)cc2C(F)(F)F)CC1 [Example I-34, 1-(4-(4-amino-7-cyclopropyl-7H-pyrrolo[2,3-d]pyrimidin-5-yl)-2-fluorophenyl)-3-(4-((4-methylpiperazin-1-yl)methyl)-3-(trifluoromethyl)phenyl)urea]",< 50 nM,< 100 nM
"CN1CCN(Cc2ccc(NC(=O)Nc3ccc(-c4cn(C5CC5)c5ncnc(N)c45)cc3F)cc2OC(F)(F)F)CC1 [Example I-78, 1-(4-(4-amino-7-cyclopropyl-7H-pyrrolo[2,3-d]pyrimidin-5-yl)-2-fluorophenyl)-3-(4-((4-methylpiperazin-1-yl)methyl)-3-(trifluoromethoxy)phenyl)urea]",50 to 250 nM,100 to 500 nM
"Nc1ncnc2c1c(-c1ccc(NC(=O)Nc3ccc(CN4CCN(CCO)CC4)c(C(F)(F)F)c3)c(F)c1)cn2C1CC1 [Example I-42, 1-(4-(4-amino-7-cyclopropyl-7H-pyrrolo[2,3-d]pyrimidin-5-yl)-2-fluorophenyl)-3-(4-((4-(2-hydroxyethyl)piperazin-1-yl)methyl)-3-(trifluoromethyl)phenyl)urea]",< 50 nM,< 100 nM
"CN1CCN(Cc2ncc(NC(=O)Nc3ccc(-c4cn(C5CC5)c5ncnc(N)c45)cc3F)cc2C(F)(F)F)CC1 [Example I-68, 1-(4-(4-amino-7-cyclopropyl-7H-pyrrolo[2,3-d]pyrimidin-5-yl)-2-fluorophenyl)-3-(6-((4-methylpiperazin-1-yl)methyl)-5-(trifluoromethyl)pyridin-3-yl)urea]",50 to 250 nM,100 to 500 nM
"CCN1CCN(Cc2ccc(NC(=O)Nc3ccc(-c4nn(C5CC5)c5ncnc(N)c45)cc3F)cc2C(F)(F)F)CC1 [Example I-50, 1-(4-(4-amino-1-cyclopropyl-1H-pyrazolo[3,4-d]pyrimidin-3-yl)-2-fluorophenyl)-3-(4-((4-ethylpiperazin-1-yl)methyl)-3-(trifluoromethyl)phenyl)urea]",< 50 nM,< 100 nM
"CN1CCN(Cc2ccc(NC(=O)Nc3ccc(-c4nn(CC(C)(C)O)c5ncnc(N)c45)cc3F)cc2C(F)(F)F)CC1 [Example I-29, 1-(4-(4-amino-1-(2-hydroxy-2-methylpropyl)-1H-pyrazolo[3,4-d]pyrimidin-3-yl)-2-fluorophenyl)-3-(4-((4-methylpiperazin-1-yl)methyl)-3-(trifluoromethyl)phenyl)urea]",< 50 nM,< 100 nM
"CN1CCN(C(=O)c2ccc(NC(=O)Nc3ccc(-c4nn(C5CC5)c5ncnc(N)c45)cc3F)cc2C(F)(F)F)CC1 [Example I-49, 1-(4-(4-amino-1-cyclopropyl-1H-pyrazolo[3,4-d]pyrimidin-3-yl)-2-fluorophenyl)-3-(4-(4-methylpiperazine-1-carbonyl)-3-(trifluoromethyl)phenyl)urea]",50 to 250 nM,100 to 500 nM
"CN1CCC(Oc2ccc(NC(=O)Nc3ccc(-c4cn(C5CC5)c5ncnc(N)c45)cc3F)cc2C(F)(F)F)C(F)C1 (single isomer, unassigned) [Example I-90, 1-(4-(4-amino-7-cyclopropyl-7H-pyrrolo[2,3-d]pyrimidin-5-yl)-2-fluorophenyl)-3-(4-((3-fluoro-1-methylpiperidin-4-yl)oxy)-3-(trifluoromethyl)phenyl)urea]",< 50 nM,< 100 nM
"CS(=O)(=O)N1CCN(Cc2ccc(NC(=O)Nc3ccc(-c4cn(C5CC5)c5ncnc(N)c45)cc3F)cc2C(F)(F)F)CC1 [Example I-98, 1-(4-(4-amino-7-cyclopropyl-7H-pyrrolo[2,3-d]pyrimidin-5-yl)-2-fluorophenyl)-3-(4-((4-(methylsulfonyl)piperazin-1-yl)methyl)-3-(trifluoromethyl)phenyl)urea]",> 1000 nM,500 to 2000 nM
"COCCN1CCN(Cc2ccc(NC(=O)Nc3ccc(-c4cn(C5CC5)c5ncnc(N)c45)cc3F)cc2C(F)(F)F)CC1 [Example I-43, 1-(4-(4-amino-7-cyclopropyl-7H-pyrrolo[2,3-d]pyrimidin-5-yl)-2-fluorophenyl)-3-(4-((4-(2-methoxyethyl)piperazin-1-yl)methyl)-3-(trifluoromethyl)phenyl)urea]",50 to 250 nM,< 100 nM
"CN1CCN(Cc2ccc(NC(=O)Nc3ccc(-c4nn(CCO)c5ncnc(N)c45)cc3F)cc2C(F)(F)F)CC1 [Example I-76, 1-(4-(4-amino-1-(2-hydroxyethyl)-1H-pyrazolo[3,4-d]pyrimidin-3-yl)-2-fluorophenyl)-3-(4-((4-methylpiperazin-1-yl)methyl)-3-(trifluoromethyl)phenyl)urea]",50 to 250 nM,< 100 nM
"CN1CCC(Oc2ncc(NC(=O)Nc3ccc(-c4cn(C5CC5)c5ncnc(N)c45)cc3F)cc2C(F)(F)F)CC1 [Example I-61, 1-(4-(4-amino-7-cyclopropyl-7H-pyrrolo[2,3-d]pyrimidin-5-yl)-2-fluorophenyl)-3-(6-((1-methylpiperidin-4-yl)oxy)-5-(trifluoromethyl)pyridin-3-yl)urea]",> 1000 nM,–
CN1CCN(c2ccc(NC(=O)Nc3ccc(-c4cn(C5CC5)c5ncnc(N)c45)cc3F)cc2C(F)(F)F)CC1 [Example I-3],250 to 1000 nM,–
"Nc1ncnc2c1c(-c1ccc(NC(=O)Nc3ccc(CN4CCOCC4)c(C(F)(F)F)c3)c(F)c1)cn2C1CC1 [Example I-32, 1-(4-(4-amino-7-cyclopropyl-7H-pyrrolo[2,3-d]pyrimidin-5-yl)-2-fluorophenyl)-3-(4-(morpholinomethyl)-3-(trifluoromethyl)phenyl)urea]",250 to 1000 nM,–
"CN1CCN(Cc2ccc(NC(=O)Nc3ccc(-c4nn(C5CC5)c5ccnc(N)c45)cn3)cc2C(F)(F)F)CC1 [Example I-51, 1-(5-(4-amino-1-cyclopropyl-1H-pyrazolo[4,3-c]pyridin-3-yl)pyridin-2-yl)-3-(4-((4-methylpiperazin-1-yl)methyl)-3-(trifluoromethyl)phenyl)urea]",50 to 250 nM,–
